# Entries after “also recorded” stand apart in the source; their conditions may differ.
# Legend:
# Assay type in all cases: in vivo
# [1] = test system: swine exposed to 2.5 ATA hyperbaric oxygen for 5.5 hr; assay: Experiment 2 deep exposure simulation: pulmonary compliance
# Protocol: Experiment 2 is designed to evaluate the efficacy of tiotropium bromide pre-dive with respect to reducing decrements in pulmonary function due to PO2T following a 5.5 hour, 2.5 ATA hyperbaric oxygen exposure. This dive profile was selected because it caused the most significant pulmonary function deficits in humans with minimal risk of seizure due to CNS oxygen toxicity.
# Pulmonary function testing: The swine had disposable prewired electrodes adhered to the dermis over the gluteal muscle and a train of four (TOF) stimulation was initiated to confirm proper placement and twitch using a DigiStim III Peripheral Nerve Stimulator (Neuro Technology Inc., Kerrville, Tex.). Atracurium besylate (50 mg, IV) (hospira, Lake Forest, Ill.) was injected into the ear vein catheter, and the swine was observed until cessation of muscle twitch with TOFs. The swine was then disconnected from the ventilator circuit, allowed to passively exhale, and connected to an O2 filled 3 L super syringe (Hamilton Company, Reno, Nev.) attached to a pressure gauge (OMEGA®, Norwalk, Conn.), and pneumotachometer (Harvard Apparatus, Holliston, Mass.). Oxygen was introduced in 100 ml increments every 3 seconds until a static pressure of 40 cm H2O was reached. The lungs were then deflated in 100 ml increments until a static pressure of −40 cm H2O. The swine was then reconnected to the ventilator and ventilated for 2 minutes before repeating the insufflation and exhalation maneuvers and measurements one more time. […] After the above measurements, swine received either nebulized Tiotropium (18 μg dissolved in saline) or an equal volume of 0.9% saline through the breathing circuit over the course of 15 minutes. The propofol infusion was then stopped, the animals were then monitored until a swallow reflex was observed then extubated. The swine were then transported to the hyperbaric chamber suite and allowed to recover until capable of standing.
# (§1) Hyperbaric Exposures: Individual animals were then placed into a Plexiglas box (30 in.×42 in.×38 in., manufactured in-house) within a Multiple Large Animal Chamber (MLAC), which is a steel-hulled hyperbaric chamber (450-cubic ft. floodable volume and pressure tested to 1,230 feet of seawater [fsw] equivalent) (Bethlehem Steel Corp, Bethlehem Pa.). Pressure/depth was monitored by a CPG 2500 Digital Pressure Gauge (Mensor Corp., San Marcos, Tex.). Swine were dove in pairs with each treatment group represented. Swine box assignment was alternated with respect to treatment to avoid any effects associated with individual box environmental features. Animals were monitored via closed-circuit television to observe signs of distress related to middle ear barotrauma (e.g. head shaking, nystagmus) and seizure activity. Oxygen concentration was measured and recorded using a portable O2 analyzer (Teledyne Analytical Inst, City of Industry, Calif.). After positioning the animal inside the Plexiglas box, the MLAC was sealed and pressurized using air at the rate of I ATA/minute to a depth of 2.5 ATA. After 2.5 min at a bottom depth equivalent to 2.5 ATA, the breathing gas was switched to 100% O2 and maintained for 5.5 Hrs. After completing 5.5 Hrs on 100% O2, the inspired gas was switched back to air for 3 min. Then, the chamber was decompressed at 1 ATA/minute. Upon reaching surface the animal was transported to the surgical suite for post-dive ECG and pulmonary function measurements (identical to the pre-dive procedures). […]
# [2] = test system: swine exposed to 1.5 ATA hyperbaric oxygen for 17.5 hr; assay: Experiment 1 shallow exposure simulation: Impulse Oscillometry (IOS); conditions: 1.5 ATA O2 17.5 hr, 18 mcg nebulized pre-dive, post-dive normalized to baseline, n=7/arm
# Protocol: Experiment 1 is designed to evaluate the efficacy of tiotropium bromide administered pre-dive in reducing decrements in pulmonary function due to PO2T following a 17.5 hour, 1.5 ATA hyperbaric oxygen exposure. This dive profile was selected because it was of sufficient duration to elicit persistent pulmonary function decrement in humans.
# The swine were anesthetized with propofol (20 cc, I.V. target, adjusted as needed to optimize sedation), intubated and ventilated. Anesthetized swine were shaved, then ECG and EEG electrodes were placed. Animals were then paralyzed with Atracurium Besylate (50 mg, IV) for accurate pulmonary function measurements of quasi-static and dynamic compliance.
# Following baseline pulmonary function measurements, the swine were randomized to receive equivalent volumes of normal saline or tiotropium bromide (18 mcg) via nebulizer. The swine were then ventilated until muscle tone was regained. […]
# Next, the swine were switched to 100% oxygen breathing gas and remained at 1.5 ATA for 17.5 hr. […] When fully sedated, the swine were ventilated, paralyzed with Atracurium Besylate, and post-dive measurements of pulmonary function were recorded. During all phases of study the swine were continuously monitored for signs of seizure or distress. […]
# [3] = test system: swine exposed to 2.5 ATA hyperbaric oxygen for 5.5 hr; assay: Experiment 2: adverse reactions / seizure observation; conditions: 2.5 ATA oxygen exposure
# Description: as §1, with “ATA/minute.” for “ATA/minute. Upon reaching surface the animal was transported to the surgical suite for post-dive ECG and pulmonary function measurements (identical to the pre-dive procedures).”
smiles,measurement,setting,value
"C[N+]1(C)[C@@H]2C[C@@H](OC(=O)C(O)(c3cccs3)c3cccs3)C[C@H]1[C@@H]1O[C@@H]12 [Tiotropium, tiotropium bromide]","pulmonary compliance, inspiratory arm, post-exposure vs baseline","[1]; 2.5 ATA O2 5.5 hr, 1st set of measurements, n=7, p=0.1999",no significant difference
same,"expiratory compliance, post-exposure vs baseline","[1]; 2.5 ATA O2 5.5 hr, 1st set of measurements, n=7, p=0.5711",did not exhibit any decrement
same,"pulmonary compliance, expiratory arm, post-exposure vs baseline","[1]; 2.5 ATA O2 5.5 hr, 2nd set of measurements, n=9, p=0.0438",significant decrement
same,"pulmonary compliance, inspiratory arm, post-exposure vs baseline","[1]; 2.5 ATA O2 5.5 hr, 2nd set of measurements, n=9, p=0.7388",no significant change
same,pulmonary compliance after hyperbaric oxygen exposure,"[1]; 2.5 ATA for 5.5 hrs, 18 μg inhaled, nebulized, prophylactic, p=0.9094",no decrement in pulmonary compliance; also recorded: no change
same,"IOS resistance, Tiotropium treated animals vs saline controls",[2]; p=0.172,no significant differences
same,"IOS reactance, Tiotropium treated animals vs saline controls",[2]; p=0.65,no significant differences
same,adverse reactions (including seizure),[3],no adverse reactions

# From patent US20190290623A1, “USE OF TIOTROPIUM BROMIDE TO PREVENT PULMONARY OXYGEN TOXICITY” (priority 2018, published 2019)
